# What was measured:
# [1] = tested on: HBEC; test: CellTiter-Blue (CTB) cell viability assay in on target screen
# [2] = tested on: HBEC; test: ATPlite secondary toxicity assay
# Source text: In addition, a second toxicity assay was developed using the ATPlite (Perkin Elmer) assay to evaluate possible toxicity caused by target viruses. With this assay ATP, which is produced by metabolically active cells, reacts with luciferase and D-luciferin to emit light. This assay is based on the luciferase-mediated and ATP-dependent conversion of D-luciferin into oxyluciferin resulting in emission of light. The emitted light, measured as luminescence, is proportional to the ATP concentration in the sample and thus to the number of viable cells.
# A staurosporin concentration curve (two-fold dilution ranging from 1 to 0.03 μM) was added to each cell plate as a reference for toxicity and the ATPlite read-out was performed.
# The data after log transformation and robust Z-score normalization based on negatives was used for the analysis of the results.
# [3] = tested on: MMP10; test: EMT on target screen, MMP10 read-out; type: cell-based, human; conditions: for OT MMP10 Screen Z-score 2: as E13, duplicate 2; for OT MMP10 Screen Z-score 1: robust Z-score, HBEC donor Br299, duplicate 1, cut-off Z ≦ −1.25
# [4] = tested on: Fibronectin (FN); test: EMT on target screen, FN read-out; type: cell-based, human; conditions: for OT FN Screen Z-score 2: as E11, duplicate 2; for Both (shRNA is a hit again in both OT assays, Yes/No): on target validation, Table 16; for OT FN Screen Z-score 1: robust Z-score, HBEC donor Br299, duplicate 1, cut-off Z ≦ −1.25
# [5] = tested on: HBEC
compound,measurement,setting,value
CN[C@@H]1C[C@H]2O[C@@](C)([C@@H]1OC)n1c3ccccc3c3c4c(c5c6ccccc6n2c5c31)C(=O)NC4 [staurosporin],average Z-score of CTB data,"[1]; 0.03 μM staurosporin, lowest concentration of the standard curve",within the same range as the control panel and the trigger only samples
same,Z-score of CTB data,[1]; 0.06 μM staurosporin,decreased clearly
same,toxicity,[2]; 0.6 μM staurosporin treatment,30%
same,average Z-score,"[2]; 0.6 μM staurosporin, robust Z-score on negatives",−5.5
same,luminescence at highest concentration of staurosporin used,[2]; concentration curve 1 to 0.03 μM,decreased the luminescence to near background signal
63 (GAATTTCAGAAGTACTGTG; chemistry not given here) [compound 63],OT MMP10 Screen Z-score 2,[3],2.02
same,OT MMP10 Screen Z-score 1,[3],1.53
same,OT FN Screen Z-score 2,[4],-3.76
same,"Both (shRNA is a hit again in both OT assays, Yes/No)",[4],no
same,OT FN Screen Z-score 1,[4],-3.62
same,OT CTB assay Z-score 1,[5],-2.12
same,OT CTB assay Z-score 2,[5],-3.06
55 (AGGCTCACTTGCCTTTGGC; chemistry not given here) [compound 55],OT MMP10 Screen Z-score 2,[3],0.18
same,OT MMP10 Screen Z-score 1,[3],0.92
same,OT FN Screen Z-score 2,[4],-6.07
same,"Both (shRNA is a hit again in both OT assays, Yes/No)",[4],yes
same,OT FN Screen Z-score 1,[4],-4.43
same,OT CTB assay Z-score 1,[5],-4.29
same,OT CTB assay Z-score 2,[5],-8.29
59 (TGAAGGTCAAGAAGCCGGC; chemistry not given here) [compound 59],OT MMP10 Screen Z-score 2,[3],-1.19
same,OT MMP10 Screen Z-score 1,[3],-1.71
same,OT FN Screen Z-score 2,[4],-8.92
same,"Both (shRNA is a hit again in both OT assays, Yes/No)",[4],yes
same,OT FN Screen Z-score 1,[4],-6.20
same,OT CTB assay Z-score 1,[5],-6.59
same,OT CTB assay Z-score 2,[5],-4.59
